“And” between values parts separate entries of the source, which are not always exact repeats. Identical values can stand only once. Like-named read-outs stand apart in the source and are kept apart here.

Here are results for 13 molecules from publication PMC6858373 (Scientific Reports, 2019).

Data set [1] deals with T1, FGF14:Nav1.6 C-tail complex (Homo sapiens, UniProt Q92915+Q9UQD0).
T1 construct: polymerase chain reaction (PCR) amplification of the FGF14 open reading frame (nt 1–855); C-terminal fragment of Nav1.6 (amino acids 1763–1976) fused with CD4ΔC-tail (amino acids 1–395); expressed in transfected cells
T1 sequence (Q92915 1-252 isoform Q92915-2): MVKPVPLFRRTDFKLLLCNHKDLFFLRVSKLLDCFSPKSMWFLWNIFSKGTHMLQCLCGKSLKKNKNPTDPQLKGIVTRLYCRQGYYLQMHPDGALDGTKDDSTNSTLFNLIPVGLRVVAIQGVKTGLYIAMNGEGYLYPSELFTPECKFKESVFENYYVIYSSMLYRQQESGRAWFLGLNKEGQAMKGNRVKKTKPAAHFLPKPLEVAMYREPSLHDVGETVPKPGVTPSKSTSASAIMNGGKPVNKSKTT
T1 sequence (Q9UQD0 1763-1976 limits assumed): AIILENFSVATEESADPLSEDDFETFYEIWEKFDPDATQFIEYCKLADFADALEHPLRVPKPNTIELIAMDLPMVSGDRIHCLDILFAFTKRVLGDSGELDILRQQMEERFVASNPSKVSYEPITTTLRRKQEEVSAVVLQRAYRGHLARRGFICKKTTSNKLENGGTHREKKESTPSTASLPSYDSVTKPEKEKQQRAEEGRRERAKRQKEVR
The data set can be described thus: Split-luciferase complementation assay (LCA) in Clone V double stable HEK293 cells. Type of data set: cell-based. Conditions: CC_NCI screening; for Split Luciferase Assay % Lum Set 1 / Split Luciferase Assay %Lum Set 2: LCA luminescence, normalized to on-plate 0.3% DMSO controls (n=16 per plate); for Split Luciferase Assay % Lum Set 1 / Split Luciferase Assay Z-score Set 1: biological replicate Set 1; for Split Luciferase Assay %Lum Set 2 / Split Luciferase Assay Z-score Set 2: biological replicate Set 2; for Split Luciferase Assay Z-score Set 1 / Split Luciferase Assay Z-score Set 2: LCA, normalized to on-plate 0.3% DMSO controls; for Split Luciferase Assay %Lum Avg: average of Set 1 and Set 2, normalized to 0.3% DMSO controls.

Data set [2] has as its target full-length P. pyralis luciferase (Photinus pyralis, UniProt P08659, K549A/L550V/N119G/N50D/S548I). It counts as cell-based. The conditions noted are these: CC_NCI screening, normalized to on-plate 0.3% DMSO controls; for Luciferase Assay % Lum: full-length luciferase counter-screen luminescence; for Luciferase Assay Z-score: full-length luciferase counter-screen. A general note: The purpose of a counterscreen is to sort out artefacts and off-target activity.

Data set [3] relates to Clone V cells. The data set can be described thus: CellTiter Blue (CTB) cell viability counter-screen. Conditions: CC_NCI screening, normalized to on-plate 0.3% DMSO controls; for Toxicity Assay % Fluor: CTB cell viability fluorescence; for Toxicity Assay Z-score: CTB cell viability. For orientation: The colour change of resazurin is a common sign of viable cells or microbes.

Data set [4] has as its system Clone V cells.

Sequence of full-length P. pyralis luciferase (P08659 whole entry N50D/N119G/S548I/K549A/L550V, looked up): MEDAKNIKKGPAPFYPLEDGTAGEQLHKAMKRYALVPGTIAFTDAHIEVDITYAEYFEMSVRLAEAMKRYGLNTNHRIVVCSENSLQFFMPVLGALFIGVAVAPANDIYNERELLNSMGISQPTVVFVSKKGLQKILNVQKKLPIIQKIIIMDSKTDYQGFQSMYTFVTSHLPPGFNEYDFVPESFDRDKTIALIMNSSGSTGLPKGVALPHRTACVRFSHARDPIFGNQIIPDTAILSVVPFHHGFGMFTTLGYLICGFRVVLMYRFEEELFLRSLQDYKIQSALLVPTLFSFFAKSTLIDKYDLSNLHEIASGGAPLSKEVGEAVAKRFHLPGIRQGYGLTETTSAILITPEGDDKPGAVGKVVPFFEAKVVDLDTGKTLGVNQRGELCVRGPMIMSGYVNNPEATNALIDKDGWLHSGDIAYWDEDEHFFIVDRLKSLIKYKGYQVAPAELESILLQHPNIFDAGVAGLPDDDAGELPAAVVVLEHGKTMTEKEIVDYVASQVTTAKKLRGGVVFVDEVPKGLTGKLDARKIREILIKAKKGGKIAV

In the case of `CN1CCN(CCOc2cc(OC3CCOCC3)c3c(Nc4c(Cl)ccc5c4OCO5)ncnc3c2)CC1` [SARACATINIB], in data set [1], the “Split Luciferase Assay % Lum Set 1” value was 85.12%, the “Split Luciferase Assay %Lum Set 2” value is 98.83%, the “Split Luciferase Assay Z-score Set 1” value is given as -1.20 and the “Split Luciferase Assay Z-score Set 2” value is given as -0.10. Also, the “Split Luciferase Assay %Lum Avg” value in data set [1] is on record as 91.97%. In addition, in data set [2], the “Luciferase Assay % Lum” value is reported as 107.97% and the “Luciferase Assay Z-score” value was 1.02. In the data set with Clone V cells [3], the “Toxicity Assay % Fluor” value was 108.09% and the “Toxicity Assay Z-score” value is given as 1.13.

On to `COc1cc(Nc2c(C#N)cnc3cc(OCCCN4CCN(C)CC4)c(OC)cc23)c(Cl)cc1Cl` [BOSUTINIB], for which, in data set [1], the “Split Luciferase Assay %Lum Set 2” value was 94.67%, the “Split Luciferase Assay Z-score Set 1” value turned out to be 0.73, the “Split Luciferase Assay Z-score Set 2” value was -0.43 and the “Split Luciferase Assay %Lum Avg” value is on record as 101.85%. In addition, in data set [2], the “Luciferase Assay % Lum” value was 108.17% and the “Luciferase Assay Z-score” value stood at 1.05. Besides, in the data set with Clone V cells [3], the “Toxicity Assay % Fluor” value was found to be 88.31% and the “Toxicity Assay Z-score” value is listed as -1.63.

In the case of `CN(N=O)C(=O)N[C@@H](C=O)[C@@H](O)[C@H](O)[C@H](O)CO` [Streptozocin], in data set [1], the “Split Luciferase Assay % Lum Set 1” value was found to be 130.78%, the “Split Luciferase Assay %Lum Set 2” value was found to be 124.84%, the “Split Luciferase Assay Z-score Set 1” value came out at 2.49 and the “Split Luciferase Assay Z-score Set 2” value was 2.02. The “Split Luciferase Assay %Lum Avg” value in data set [1] is listed as 127.81%. Further, in data set [2], the “Luciferase Assay % Lum” value came out at 99.54% and the “Luciferase Assay Z-score” value is recorded as -0.06. Besides, in the data set on Clone V cells [3], the “Toxicity Assay % Fluor” value was 96.94% and the “Toxicity Assay Z-score” value is given as -0.43.

For the molecule `O=C(CCCCCCC(=O)Nc1ccccc1)NO` [Vorinostat], in data set [1], the “Split Luciferase Assay % Lum Set 1” value was 88.38%, the “Split Luciferase Assay %Lum Set 2” value is on record as 88.43%, the “Split Luciferase Assay Z-score Set 1” value was -0.94 and the “Split Luciferase Assay Z-score Set 2” value is reported as -0.94. For the same molecule, the “Split Luciferase Assay %Lum Avg” value in data set [1] is listed as 88.40%. Also, in data set [2], the “Luciferase Assay % Lum” value is on record as 97.95% and the “Luciferase Assay Z-score” value is recorded as -0.26. Further, in the data set on Clone V cells [3], the “Toxicity Assay % Fluor” value is 101.32% and the “Toxicity Assay Z-score” value turned out to be 0.19.

`Cc1ccc(F)c(NC(=O)Nc2ccc(-c3cccc4[nH]nc(N)c34)cc2)c1` [ABT-869]: in data set [1], the “Split Luciferase Assay % Lum Set 1” value came out at 14.46%, the “Split Luciferase Assay %Lum Set 2” value is 21.85%, the “Split Luciferase Assay Z-score Set 1” value was -6.91 and the “Split Luciferase Assay Z-score Set 2” value is listed as -6.36. Moreover, in data set [1], the “Split Luciferase Assay %Lum Avg” value amounted to 18.15%. In data set [2], the “Luciferase Assay % Lum” value is 60.04% and the “Luciferase Assay Z-score” value is listed as -5.12. In the data set on Clone V cells [3], the “Toxicity Assay % Fluor” value is recorded as 87.41% and the “Toxicity Assay Z-score” value is on record as -1.76.

Turning to `Cn1cnc2c(F)c(Nc3ccc(Br)cc3Cl)c(C(=O)NOCCO)cc21` [AZD 6244], in data set [1], the “Split Luciferase Assay % Lum Set 1” value stood at 100.34%, the “Split Luciferase Assay %Lum Set 2” value is given as 90.51%, the “Split Luciferase Assay Z-score Set 1” value was 0.03 and the “Split Luciferase Assay Z-score Set 2” value is -0.77. The “Split Luciferase Assay %Lum Avg” value in data set [1] is 95.42%. Also, in data set [2], the “Luciferase Assay % Lum” value is listed as 96.05% and the “Luciferase Assay Z-score” value is listed as -0.51. Also, in the data set with Clone V cells [3], the “Toxicity Assay % Fluor” value is 108.13% and the “Toxicity Assay Z-score” value amounted to 1.14.

Take `Cc1c(NC(=O)OC[C@@H]2COCCN2)cn2ncnc(Nc3ccc4c(cnn4Cc4cccc(F)c4)c3)c12` [BMS-599626]: in data set [1], the “Split Luciferase Assay % Lum Set 1” value is reported as 38.37%, the “Split Luciferase Assay %Lum Set 2” value was found to be 50.98%, the “Split Luciferase Assay Z-score Set 1” value is reported as -4.98 and the “Split Luciferase Assay Z-score Set 2” value is -3.99. For the same molecule, in data set [1], the “Split Luciferase Assay %Lum Avg” value turned out to be 44.68%. Moreover, in data set [2], the “Luciferase Assay % Lum” value is 83.05% and the “Luciferase Assay Z-score” value was -2.17. Besides, in the data set on Clone V cells [3], the “Toxicity Assay % Fluor” value was 101.94% and the “Toxicity Assay Z-score” value is reported as 0.27.

Regarding `Nc1cccc2c1CN(C1CCC(=O)NC1=O)C2=O` (stereo not shown) [Lenalidomide], in data set [1], the “Split Luciferase Assay % Lum Set 1” value was 144.91% and 107.95%; the “Split Luciferase Assay %Lum Set 2” value was 144.60% and 129.00%; the “Split Luciferase Assay Z-score Set 1” value was 3.63 and 0.64; the “Split Luciferase Assay Z-score Set 2” value was 3.63 and 2.36. For the same molecule, in data set [1], the “Split Luciferase Assay %Lum Avg” value was 144.76% and 118.47%. Further, in data set [2], the “Luciferase Assay % Lum” value is 104.96% and 92.77%. The “Toxicity Assay % Fluor” value with Clone V cells [3] was 84.86% and 92.38%.

As to `C[C@@H](Oc1cc(-c2cnn(C3CCNCC3)c2)cnc1N)c1c(Cl)ccc(F)c1Cl` [PF-2341066], in data set [1], the “Split Luciferase Assay % Lum Set 1” value was found to be 59.03%, the “Split Luciferase Assay %Lum Set 2” value is 48.89%, the “Split Luciferase Assay Z-score Set 1” value is listed as -3.31 and the “Split Luciferase Assay Z-score Set 2” value is -4.16. Also, in data set [1], the “Split Luciferase Assay %Lum Avg” value is reported as 53.96%. Further, in the data set with Clone V cells [3], the “Toxicity Assay % Fluor” value is reported as 82.92% and the “Toxicity Assay Z-score” value is -2.39.

Turning to `CN(C)S(=O)(=O)c1ccc2c(c1)/C(=C/c1cc3c([nH]1)CCCC3)C(=O)N2` [SU 6656], in data set [1], the “Split Luciferase Assay % Lum Set 1” value came out at 128.60%, the “Split Luciferase Assay %Lum Set 2” value was found to be 106.11%, the “Split Luciferase Assay Z-score Set 1” value came out at 2.31 and the “Split Luciferase Assay Z-score Set 2” value is 0.50. Also, the “Split Luciferase Assay %Lum Avg” value in data set [1] was determined as 117.36%. Besides, in data set [2], the “Luciferase Assay % Lum” value is on record as 101.36% and the “Luciferase Assay Z-score” value was 0.17. In the data set with Clone V cells [4] (human, 16 h, 30 µM), the “Toxicity Assay % Fluor” value is 105.95% and the “Toxicity Assay Z-score” value stood at 0.83.

For `CC(C)C[C@H](NC(=O)[C@H](Cc1ccccc1)NC(=O)c1cnccn1)B(O)O` [BORTEZOMIB], in data set [1], the “Split Luciferase Assay % Lum Set 1” value came out at 55.77%, the “Split Luciferase Assay %Lum Set 2” value came to 84.27%, the “Split Luciferase Assay Z-score Set 1” value was -3.57 and the “Split Luciferase Assay Z-score Set 2” value is on record as -1.28. In data set [1], the “Split Luciferase Assay %Lum Avg” value amounted to 70.02%. For the same molecule, in data set [2], the “Luciferase Assay % Lum” value was found to be 88.79% and the “Luciferase Assay Z-score” value is -1.44. Further, in the data set with Clone V cells [4] (human, 16 h, 30 µM), the “Toxicity Assay % Fluor” value was 89.20% and the “Toxicity Assay Z-score” value is reported as -1.51.

Consider `O=C(/C=C/c1ccc(CN(CCO)CCc2c[nH]c3ccccc23)cc1)NO` [NVP LAQ824], for which, in data set [1], the “Split Luciferase Assay % Lum Set 1” value is recorded as 93.82%, the “Split Luciferase Assay %Lum Set 2” value was 83.22%, the “Split Luciferase Assay Z-score Set 1” value is listed as -0.50 and the “Split Luciferase Assay Z-score Set 2” value was -1.36. In data set [1], the “Split Luciferase Assay %Lum Avg” value came out at 88.52%. In addition, in data set [2], the “Luciferase Assay % Lum” value turned out to be 95.25% and the “Luciferase Assay Z-score” value is given as -0.61. In the data set on Clone V cells [4] (human, 16 h, 30 µM), the “Toxicity Assay % Fluor” value was 98.78% and the “Toxicity Assay Z-score” value is -0.17.

Regarding `OCC1OC(O)CC(O)C1O` (stereo not shown) [Compound 2DG], in data set [1], the “Split Luciferase Assay % Lum Set 1” value turned out to be 104.69%, the “Split Luciferase Assay %Lum Set 2” value is reported as 130.04%, the “Split Luciferase Assay Z-score Set 1” value came to 0.38 and the “Split Luciferase Assay Z-score Set 2” value turned out to be 2.44. In addition, in data set [1], the “Split Luciferase Assay %Lum Avg” value was determined as 117.36%. Besides, in data set [2], the “Luciferase Assay % Lum” value was 91.76% and the “Luciferase Assay Z-score” value is -1.06. In the data set on Clone V cells [4], the “Toxicity Assay % Fluor” value was 93.82% and the “Toxicity Assay Z-score” value is reported as -0.86.
